Data: PubChem BioAssay AID256 (DTP/NCI, 2004)
Inconclusive results and toxic doses are left out.

System: CD2F1 mice, L1210 leukemia ip, survival T/C
Experiment: NCI In Vivo Anticancer Drug Screen. Data for tumor model L1210 Leukemia (intraperitoneal) in CD2F1 (CDF1) mice
Settings: endpoint: mean survival time, higher = longer survival
Outline: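 Read-out first: treated-group measurement over vehicle-control measurement, expressed as a ratio. Animals bore a transplanted tumor line and were dosed with compound or vehicle.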

[1] = dose: 100.0 mg/kg/injection, schedule: Q01DX009 (ip), vehicle: saline with Tween-80
[2] = dose: 200.0 mg/kg/injection, schedule: Q01DX009 (ip), vehicle: saline with Tween-80

Structure (SMILES): NC(=S)N/N=C/c1ccccn1
- T/C (dose: 1.56 mg/kg/injection, schedule: Q04DX002 (ip), vehicle: Klucel (hydroxypropylcellulose) (HPC)): 108 % of control
- T/C (dose: 3.12 mg/kg/injection, schedule: Q04DX002 (ip), vehicle: Klucel (hydroxypropylcellulose) (HPC)): 112 % of control
- T/C (dose: 6.25 mg/kg/injection, schedule: Q04DX002 (ip), vehicle: Klucel (hydroxypropylcellulose) (HPC)): 92 % of control
- T/C (dose: 6.7 mg/kg/injection, schedule: Q01DX009 (ip), vehicle: saline with Tween-80): 151 % of control
- T/C (dose: 10.0 mg/kg/injection, schedule: Q01DX009 (ip), vehicle: saline with Tween-80): 107 % of control
- T/C (dose: 15.0 mg/kg/injection, schedule: Q01DX009 (ip), vehicle: saline with Tween-80): 93 % of control

Structure (SMILES): CCCC(O)(CC)C1CCCC1C (stereo unspecified)
- T/C (dose: 50.0 mg/kg/injection, schedule: Q01DX009 (ip), vehicle: saline with Tween-80): 100 % of control
- T/C [1]: 95 % of control
- T/C [2]: 100 % of control

Structure (SMILES): CC(=O)OC1CCC2(C)C(=CC=C3C2CCC2(C)C3CCC2C(C)/C=C/C(C)C(C)C)C1 (stereo unspecified)
- T/C (dose: 50.0 mg/kg/injection, schedule: Q01DX009 (ip), vehicle: Klucel (hydroxypropylcellulose) (HPC)): 89 % of control
- T/C (dose: 100.0 mg/kg/injection, schedule: Q01DX009 (ip), vehicle: Klucel (hydroxypropylcellulose) (HPC)): 101 % of control
- T/C (dose: 200.0 mg/kg/injection, schedule: Q01DX009 (ip), vehicle: Klucel (hydroxypropylcellulose) (HPC)): 93 % of control

Structure (SMILES): COc1cc2c(cc1OC)-c1c(cnn1C1OC(COC(C)=O)C(OC(C)=O)C(OC(C)=O)C1OC(C)=O)CC2 (stereo unspecified)
- T/C (dose: 12.5 mg/kg/injection, schedule: Q01DX005 (ip), vehicle: other): 103 % of control
- T/C (dose: 25.0 mg/kg/injection, schedule: Q01DX005 (ip), vehicle: other): 93 % of control
- T/C (dose: 50.0 mg/kg/injection, schedule: Q01DX005 (ip), vehicle: other): 90 % of control
- T/C (dose: 100.0 mg/kg/injection, schedule: Q01DX005 (ip), vehicle: other): 87 % of control

Structure (SMILES): COc1ccc(NC(=O)Nc2cccc(Cl)c2)c(Cl)c1
- T/C (dose: 25.0 mg/kg/injection, schedule: Q04DX002 (ip), vehicle: saline with Tween-80): 88 % of control
- T/C (dose: 50.0 mg/kg/injection, schedule: Q04DX002 (ip), vehicle: saline with Tween-80): 92 % of control
- T/C (dose: 400.0 mg/kg/injection, schedule: Q04DX002 (ip), vehicle: saline with Tween-80): 88 % of control

Structure (SMILES): O=C(O)Cc1ccccc1C(=O)O
- T/C (dose: 100.0 mg/kg/injection, schedule: Q04DX003 (ip), vehicle: Klucel (hydroxypropylcellulose) (HPC)): 96 % of control
- T/C (dose: 200.0 mg/kg/injection, schedule: Q04DX003 (ip), vehicle: Klucel (hydroxypropylcellulose) (HPC)): 104 % of control
- T/C (dose: 400.0 mg/kg/injection, schedule: Q04DX003 (ip), vehicle: Klucel (hydroxypropylcellulose) (HPC)): 96 % of control

Structure (SMILES): O=[N+]([O-])c1ccc(N2CCCCC2)c([N+](=O)[O-])c1
- T/C [1]: 96 % of control
- T/C [2]: 98 % of control
- T/C (dose: 400.0 mg/kg/injection, schedule: Q01DX009 (ip), vehicle: saline with Tween-80): 95 % of control

Structure (SMILES): CC(C)OC(=O)Nc1ccccc1Cl
- T/C (dose: 100.0 mg/kg/injection, schedule: Q04DX003 (ip), vehicle: saline sonified): 92 % of control
- T/C (dose: 200.0 mg/kg/injection, schedule: Q04DX003 (ip), vehicle: saline sonified): 94 % of control
- T/C (dose: 400.0 mg/kg/injection, schedule: Q04DX003 (ip), vehicle: saline sonified): 94 % of control

Structure (SMILES): CCN(CC)CCNc1cc(OC)cc2cccnc12
- T/C (dose: 6.25 mg/kg/injection, schedule: Q04DX002 (ip), vehicle: saline): 98 % of control
- T/C (dose: 12.5 mg/kg/injection, schedule: Q04DX002 (ip), vehicle: saline): 98 % of control
- T/C (dose: 25.0 mg/kg/injection, schedule: Q04DX002 (ip), vehicle: saline): 95 % of control
